Patent US20240109885A1, “2,3-DIHYDRO-1H-PYRROLO[3,2-B]PYRIDINE DERIVATIVE, PREPARATION METHOD THEREFOR, AND APPLICATION THEREOF” (Abbisko Therapeutics Co., Ltd, priority 2020, published 2024)

How the values were obtained:
[1] = target: Ba/F3 EGFR-V769_D770insASV (Homo sapiens, UniProt P00533, DUP767-769, cells depend on it); experiment: Cell proliferation assay (CellTiter-Glo), Ba/F3 EGFR-V769_D770insASV cells; format: cell-based; conditions: 72 hrs, CTG assay, * = average of multiple measurements, read-out: Ba/F3 EGFR-V769_D770insASV (nM), IC50 of cell proliferation
Description: (§1) I. Cell proliferation assay (i) Reagents and consumables • Fetal bovine serum (FBS) (GBICO, Cat #10099-141); • CellTiter-Glo® Luminescent Cell Viability Assay Kit (Promega, Cat #G7572); • Black transparent flat-bottomed 96-well plate (Corning®, Cat #3603).
(§2) • SpectraMax Multi-Label Microplate Detector MD, 2104-0010A; • CO2 incubator, Thermo Scientific 3100 Series; • Biosafety cabinet, Thermo Scientific, 1300 Series type A2; • Inverted microscope, Olympus, CKX41SF; • Siemens refrigerator KK25E76TI. (iii) Cell lines and culture conditions
(§3) (iv) Experimental procedures 1. Cell culture and seeding: • (1) Cells in the logarithmic growth phase were harvested, and counted using a platelet counter. Cell viability was detected by the trypan blue exclusion assay to ensure that the cell viability was above 90%. • (2) The cell concentration was adjusted to achieve the final density; and 90 μL of the cell suspension was added to the 96-well plate. • (3) The cells were incubated in the 96-well plate overnight at 37° C. in the presence of 5% CO2 with 95% humidity. 2. TO benchmark data: • (1) 10 μL of PBS was added to each well of the TO flat plate containing the cells. • (2) The CTG reagent was thawed, and the cell plate was equilibrated to room temperature for 30 min. • (3) An equal volume of CTG solution was added to each well. • (4) The cells were shaken for 5 min on an orbital shaker for lysis. • (5) The cell plate was left at room temperature for 20 min to stabilize luminescent signals. • (6) The values of TO luminescent signals were read. 3. Compound dilution and addition • (1) According to the compound information table, a corresponding volume of DMSO was added to the corresponding compound powder to prepare a 10 mM stock solution. • (2) Compound solutions diluted at 1000 fold and 3.16 fold were prepared. • (3) The compound solution diluted at 1000 fold was diluted at 100 fold with PBS, to prepare the compound solutions at 10 fold in 9 concentrations, with the maximum concentration of […]; and the compound solution was diluted at 3.16 fold. 10 μL of medicament solution was added to each well of the seeded 96-well plate. Three replicate wells were provided for each concentration of the compound, and the final concentration of DMSO was 0.1%. • (4) Cells were placed in the 96-well plate containing the medicament and subsequently cultured for 72 hrs at 37° C. in the presence of 5% CO2 with 95% humidity, and then, CTG assay was conducted. 4. Reading of luminescent signals • (1) The CTG reagent was thawed, and the cell plate was equilibrated to room temperature for 30 min. • (2) An equal volume of CTG solution was added to each well. • (3) The cells were shaken for 5 min on an orbital shaker for lysis.
(§4) (4) The cell plate was left at room temperature for 20 min to stabilize the luminescent signals. • (5) Luminescent values were read. Data processing
(§5) The data were analyzed using software GraphPad Prism 7.0, and fitted by the nonlinear S-curve regression to obtain a dose-effect curve, based on which the IC50 value (unit: nM) was calculated, with the specific test results shown in Table 1.
(§6) Cell viability (%)=(Lum test medicament-Lum culture medium control)/(Lum cell control-Lum culture medium control)×100%.

[2] = target: Ba/F3 EGFR-D770-N771ins_SVD (Homo sapiens, UniProt P00533, DUP768-770, cells depend on it); experiment: Cell proliferation assay (CellTiter-Glo), Ba/F3 EGFR-D770-N771ins_SVD cells; format: cell-based; conditions: 72 hrs, CTG assay, * = average of multiple measurements, read-out: Ba/F3 EGFR-D770-N771ins_SVD (nM), IC50 of cell proliferation
Description: as §1, §2, §3, §4, §5, §6

Ba/F3 EGFR-D770-N771ins_SVD, sequence (P00533 with tags, fused parts or gaps DUP768-770): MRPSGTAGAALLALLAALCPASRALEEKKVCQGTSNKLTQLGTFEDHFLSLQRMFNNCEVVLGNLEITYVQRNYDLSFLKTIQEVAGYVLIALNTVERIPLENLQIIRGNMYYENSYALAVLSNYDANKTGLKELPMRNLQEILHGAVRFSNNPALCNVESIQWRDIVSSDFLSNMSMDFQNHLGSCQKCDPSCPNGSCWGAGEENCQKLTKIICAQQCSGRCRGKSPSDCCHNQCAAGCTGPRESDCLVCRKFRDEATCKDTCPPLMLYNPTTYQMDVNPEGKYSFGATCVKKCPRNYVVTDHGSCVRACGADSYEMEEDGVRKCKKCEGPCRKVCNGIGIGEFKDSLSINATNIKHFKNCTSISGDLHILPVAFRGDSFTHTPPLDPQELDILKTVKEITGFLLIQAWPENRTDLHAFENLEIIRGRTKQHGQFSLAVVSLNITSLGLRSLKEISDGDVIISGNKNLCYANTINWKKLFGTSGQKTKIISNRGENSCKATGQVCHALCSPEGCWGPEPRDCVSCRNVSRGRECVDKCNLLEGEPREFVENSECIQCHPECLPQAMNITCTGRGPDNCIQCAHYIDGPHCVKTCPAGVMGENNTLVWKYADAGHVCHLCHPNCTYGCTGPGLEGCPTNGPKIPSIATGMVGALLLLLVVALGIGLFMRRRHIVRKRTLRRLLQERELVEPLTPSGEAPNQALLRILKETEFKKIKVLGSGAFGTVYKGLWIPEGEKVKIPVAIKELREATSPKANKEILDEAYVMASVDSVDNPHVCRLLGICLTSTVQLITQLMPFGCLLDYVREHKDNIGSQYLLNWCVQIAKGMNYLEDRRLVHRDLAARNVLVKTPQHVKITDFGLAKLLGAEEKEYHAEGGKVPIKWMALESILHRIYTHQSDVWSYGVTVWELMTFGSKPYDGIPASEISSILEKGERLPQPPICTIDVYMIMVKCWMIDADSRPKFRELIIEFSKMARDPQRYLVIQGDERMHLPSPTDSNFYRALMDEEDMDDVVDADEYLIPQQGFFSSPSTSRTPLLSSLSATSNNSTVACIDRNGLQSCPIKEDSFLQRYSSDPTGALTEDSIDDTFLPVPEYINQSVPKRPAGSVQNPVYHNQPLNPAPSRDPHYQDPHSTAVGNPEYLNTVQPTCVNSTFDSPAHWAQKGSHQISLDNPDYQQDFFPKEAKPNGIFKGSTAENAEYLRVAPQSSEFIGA
Ba/F3 EGFR-V769_D770insASV, sequence (P00533 with tags, fused parts or gaps DUP767-769): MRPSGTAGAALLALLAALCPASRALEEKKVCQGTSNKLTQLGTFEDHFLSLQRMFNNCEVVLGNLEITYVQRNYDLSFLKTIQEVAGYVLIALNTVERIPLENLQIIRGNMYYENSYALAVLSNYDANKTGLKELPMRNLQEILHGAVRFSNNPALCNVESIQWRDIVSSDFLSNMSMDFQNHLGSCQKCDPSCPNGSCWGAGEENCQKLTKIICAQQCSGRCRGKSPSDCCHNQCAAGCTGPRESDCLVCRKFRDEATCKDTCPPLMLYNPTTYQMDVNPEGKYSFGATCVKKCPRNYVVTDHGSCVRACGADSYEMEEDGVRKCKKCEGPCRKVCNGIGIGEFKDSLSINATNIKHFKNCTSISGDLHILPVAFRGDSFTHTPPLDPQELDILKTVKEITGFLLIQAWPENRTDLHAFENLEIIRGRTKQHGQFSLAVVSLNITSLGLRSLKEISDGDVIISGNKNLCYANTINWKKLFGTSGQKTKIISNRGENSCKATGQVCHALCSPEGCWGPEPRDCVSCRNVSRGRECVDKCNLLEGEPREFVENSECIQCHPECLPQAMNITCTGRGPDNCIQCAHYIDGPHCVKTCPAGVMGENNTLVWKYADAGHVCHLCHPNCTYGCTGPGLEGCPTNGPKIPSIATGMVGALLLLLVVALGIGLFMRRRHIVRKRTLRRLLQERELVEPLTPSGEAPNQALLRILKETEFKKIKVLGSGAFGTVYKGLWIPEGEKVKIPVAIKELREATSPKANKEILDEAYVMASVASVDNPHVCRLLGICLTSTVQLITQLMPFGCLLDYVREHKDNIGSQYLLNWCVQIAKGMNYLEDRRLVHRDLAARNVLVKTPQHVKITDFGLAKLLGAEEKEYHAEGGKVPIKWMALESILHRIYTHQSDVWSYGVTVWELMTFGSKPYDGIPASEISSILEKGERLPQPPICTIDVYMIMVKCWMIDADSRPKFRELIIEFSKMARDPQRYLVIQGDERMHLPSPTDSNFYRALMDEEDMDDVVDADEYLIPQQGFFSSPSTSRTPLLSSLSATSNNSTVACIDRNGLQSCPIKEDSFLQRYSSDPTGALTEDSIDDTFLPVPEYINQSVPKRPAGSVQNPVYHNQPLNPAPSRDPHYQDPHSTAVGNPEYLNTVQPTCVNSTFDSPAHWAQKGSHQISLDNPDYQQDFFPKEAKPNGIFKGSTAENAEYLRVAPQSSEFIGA

Compound | GI50 [1] [nM] | GI50 [2] [nM]
C=CC(=O)Nc1cc(Nc2nccc(N3CC(C)(C)c4nc(C)ccc43)n2)c(OC(C)C)cc1N(C)CCN(C)C [Example 38, N-(2-((2-(dimethylamino)ethyl) (methyl)amino)-4-isopropoxy-5-((4-(3,3,5-trimethyl-2,3-dihydro-1H-pyrrolo[3,2-b]pyridin-1-yl)pyrimidin-2-yl)amino)phenyl)acrylamide] | 266 | 124
C=CC(=O)Nc1cc(Nc2nccc(N3CC4(CN(C)C4)c4nc(C)ccc43)n2)c(OC)cc1N(C)CCN(C)C [Example 73, N-(2-((2-(dimethylamino)ethyl) (methyl)amino)-5-((4-(1,5′-dimethyl-spiro[azetidine-3,3′-pyrrolo[3,2-b]pyridin]-1′(2′H)-yl)pyrimidin-2-yl)amino)-4-methoxyphenyl) acrylamide] | – | 811
C=CC(=O)Nc1cc(Nc2nccc(N3CC4(CCOCC4)c4nc(C)ccc43)n2)c(OC)cc1N(C)CCN(C)C [Example 65] | – | 108
C=CC(=O)Nc1cc(Nc2cc(N3CC(C)(C)c4nc(-c5cnn(C)c5)ccc43)ccn2)c(OC)cc1N(C)CCN(C)C [Example 67, N-(5-((4-(3,3-dimethyl-5-(1-methyl-1H-pyrazol-4-yl)-2,3-dihydro-1H-pyrrolo[3,2-b]pyridin-1-yl)pyridin-2-yl)amino)-2-((2-(dimethyl-amino)ethyl)(methyl)amino)-4-methoxyphenyl)acrylamide] | – | 108
C=CC(=O)Nc1cc(Nc2ncnc(N3CC4(CCN(C)C4)c4nc(C)ccc43)n2)c(OC)cc1N(C)CCN(C)C (centres unmarked) [Example 72, N-(2-((2-(dimethylamino)ethyl) (methyl)amino)-5-((4-(1,5′-dimethyl-spiro[pyrrolidin-3,3′-pyrrolo[3,2-b]pyridin]-1′(2′H)-yl)-1,3,5-triazin-2-yl)amino)-4-methoxyphenyl) acrylamide] | – | 298
C=CC(=O)Nc1cc(Nc2nccc(N3CC4(CCN(C)C4)c4nc(C)ccc43)n2)c(OC)cc1N(C)CCN(C)C (centres unmarked) [Example 71, N-(2-((2-(dimethylamino)ethyl) (methyl)amino)-5-((4-(1,5′-dimethyl-spiro[pyrrolidin-3,3′-pyrrolo[3,2-b]pyridin]-1′(2′H)-yl)pyrimidin-2-yl)amino)-4-methoxyphenyl) acrylamide] | – | 372
C=CC(=O)Nc1cc(Nc2cc(N3CC(C)(C)c4nc(C5CC5)ccc43)ncn2)c(OC)nc1N(C)CCN(C)C [Example 70, N-(5-((6-(5-cyclopropyl-3,3-dimethyl-2,3-dihydro-1H-pyrrolo[3,2-b]pyridin-1-yl)pyrimidin-4-yl)amino)-2-((2-(dimethylamino)ethyl) (methyl)amino)-6-methoxypyridin-3-yl)acrylamide] | – | 121
C=CC(=O)Nc1cc(Nc2cc(N3CC(C)(C)c4nc(-c5cnn(C)c5)ccc43)ncn2)c(OC)cc1N(C)CCN(C)C [Example 66, N-(5-((6-(3,3-dimethyl-5-(1-methyl-1H-pyrazol-4-yl)-2,3-dihydro-1H-pyrrolo[3,2-b]pyridin-1-yl)pyrimidin-4-yl)amino)-2-((2-(dimethylamino)ethyl)(methyl)amino)-4-methoxyphenyl)acrylamide] | – | 89.1

Stronger by GI50 [2], values ahead:

GI50 [1] [nM] | GI50 [2] [nM] | Compound
142 | 41.6 | C=CC(=O)Nc1cc(Nc2nccc(N3CC(C)(C)c4ncc(-c5ccccc5F)cc43)n2)c(OC)cc1N(C)CCN(C)C [Example 19, N-(2-((2-(dimethylamino)ethyl) (methyl)amino)-5-((4-(6-(2-fluoro-phenyl)-3,3-dimethyl-2,3-dihydro-1H-pyrrolo[3,2-b]pyridin-1-yl)pyrimidin-2-yl)amino)-4-methoxy-phenyl)acrylamide]
106 | 56.5 | C=CC(=O)Nc1cc(Nc2ncnc(N3CC(C)(C)c4nc(C)ccc43)n2)c(OCC)cc1N(C)CCN(C)C [Example 25, N-(2-((2-(dimethylamino)ethyl) (methyl)amino)-4-ethoxy-5-((4-(3,3,5-trimethyl-2,3-dihydro-1H-pyrrolo[3,2-b]pyridin-1-yl)-1,3,5-triazin-2-yl)amino)phenyl)acrylamide]
142 | 60 | COc1cc(N(C)CCN(C)C)c(N)cc1Nc1nccc(N2CC(C)(C)c3ncc(-c4c(F)cccc4F)cc32)n1 [Example 18, N^4-(4-(6-(2,6-difluorophenyl)-3,3-dimethyl-2,3-dihydro-1H-pyrrolo [3,2-b]pyridin-1-yl)pyrimidin-2-yl)-N^1-(2-(dimethylamino)ethyl)-5-methoxy-N^1-methylbenzene-1,2,4-triamine]
139 | 43.8 | C=CC(=O)Nc1cc(Nc2nccc(N3CC(C)(C)c4nc(-n5cncc5C)ccc43)n2)c(OC)cc1N(C)CCN(C)C [Example 59, N-(5-((4-(3,3-dimethyl-5-(5-methyl-1H-imidazole-1-yl)-2,3-dihydro-1H-pyrrolo[3,2-b]pyridin-1-yl)pyrimidin-2-yl)amino)-2-((2-(dimethylamino)ethyl)(methyl)amino)-4-methoxyphenyl)acrylamide]
68.8 | 31.5 | C=CC(=O)Nc1cc(Nc2nccc(N3CC(C)(C)c4nc(C)c(C)cc43)n2)c(OCC)cc1N(C)CCN(C)C [Example 27]
– | 37 | C=CC(=O)Nc1cc(Nc2nccc(N3CC4(CCCC4)c4nc(C)ccc43)n2)c(OCC(F)(F)F)cc1N(C)CCN(C)C [Example 40]
26.6 | 13.8 | C=CC(=O)Nc1cc(Nc2nccc(N3CC(C)(C)c4nc5c(cc43)CCC5)n2)c(OC)cc1N(C)CCN(C)C [Example 23, N-(5-((4-(3,3-dimethyl-3,5,6,7-tetrahydrocyclopenta[b]pyrrolo[2,3-e]pyridin-1(2H)-yl)pyrimidin-2-yl)amino)-2-((2-(dimethylamino)ethyl)(methyl)amino)-4-methoxy-phenyl)acrylamide]
– | 68.2 | C=CC(=O)Nc1cc(Nc2nccc(N3CC(C)(C)c4nc(-c5cn[nH]c5)ccc43)n2)c(OC)cc1N(C)CCN(C)C [Example 58, N-(5-((4-(3,3-dimethyl-5-(1H-pyrazol-4-yl)-2,3-dihydro-1H-pyrrolo[3,2-b]pyridin-1-yl)pyrimidin-2-yl)amino)-2-((2-(dimethylamino)ethyl)(methyl)amino)-4-methoxyphenyl)acrylamide]
– | 38.5 | C=CC(=O)Nc1cc(Nc2nccc(N3CC(C)(C)c4nc(C)c(C)cc43)n2)c(OC(C)C)cc1N(C)CCN(C)C [Example 43, N-(2-((2-(dimethylamino)ethyl) (methyl)amino)-4-isopropoxy-5-((4-(3,3,5,6-tetramethyl-2,3-dihydro-1H-pyrrolo[3,2-b]pyridin-1-yl)pyrimidin-2-yl)amino)phenyl)acrylamide]
– | 83.6 | C=CC(=O)Nc1cc(Nc2nccc(N3CC4(CC(F)(F)C4)c4nc(C)ccc43)n2)c(OC)cc1N(C)CCN(C)C [Example 74, N-(5-((4-(3,3-difluoro-5′-methyl-spiro[cyclobutane-1,3′-pyrrolo[3,2-b]pyridin]-1′(2′H)-yl)pyrimidin-2-yl)amino)-2-((2-(dimethylamino)ethyl)(methyl)amino)-4-methoxy-phenyl)acrylamide]
– | 35.5 | C=CC(=O)Nc1cc(Nc2ncnc(N3CC(C)(C)c4nc(Br)ccc43)n2)c(OC)cc1N(C)CCN(C)C [Example 41, N-(5-((4-(5-bromo-3,3-dimethyl-2,3-dihydro-1H-pyrrolo[3,2-b]pyridin-1-yl)-1,3,5-triazin-2-yl)amino)-2-((2-(dimethylamino)ethyl) (methyl)amino)-4-methoxyphenyl) acrylamide]
